Results taken from patent publication US6630169B1, “Particulate delivery systems and methods of use” (priority 2000, dated 2003).
Residues, ends and D or L forms follow the SMILES beside them. *: point of attachment. 5FAM = O=C1OC2(c3ccc(O)cc3Oc3cc(O)ccc32)c2ccc(C(=O)*)cc21

Test: Bioavailability of fluorescent-labeled HA PulmoSpheres, plasma peptide by fluorometry
Type: in vivo
Settings: mice
Experimental: A formulation comprising fluoroscein-HA peptide (20% wt/wt) PulmoSpheres (f-HA-Pul) prepared as in Example IV was suspended in perflubron. Metofane anesthetized mice were inoculated intranasally (i.n.) with a […] volume of f-HA-Pul in perflubron, corresponding to […] of peptide dose. Blood samples were collected by ocular bleeding in heparin-treated tubes, the plasma was separated and the concentration of the peptide was measured by fluorometry. As a control, an intravenous i.v.) inoculation of […] of f-HA peptide in […] of sterile saline (n=4 for all groups) was used.

For CC[C@H](C)[C@H](NC(=O)[C@H](CCC(=O)O)NC(=O)[C@H](Cc1ccccc1)NC(=O)[C@H](CCCNC(=N)N)NC(=O)[C@H](CCC(=O)O)NC(=O)[C@H](Cc1ccccc1)NC(=O)[C@H](CO)NC(=O)c1ccc2c(c1)C(=O)OC21c2ccc(O)cc2Oc2cc(O)ccc21)C(=O)N[C@@H](Cc1ccccc1)C(=O)N1CCC[C@H]1C(=O)N[C@@H](CCCCN)C(=O)N[C@@H](CCC(=O)O)C(=O)O [f-HA peptide] (5FAM-SFERFEIFPKE-OH; N-terminus and C-terminus assumed), the “total clearance (elimination via urine)” value was no more than 6 h, the Tmax (mouse, in vivo, i.n., f-HA-Pul in perflubron) was 20 min and the bioavailability (mouse, in vivo, i.n., f-HA-Pul in perflubron, vs i.v. f-HA peptide in saline, read-out: absolute bioavailability) was roughly 5%.
